Key:
GST-STING139-378 = target: T1, GST-STING139-378 (Mus musculus, UniProt Q3TBT3); assay: Pull-down using biotinylated Ap4A and recombinant proteins (in vitro binding and competition); conditions: for Competition for the binding of STING to biotinylated Ap4A: 10-fold excess of the competitor, 1 h at 4° C.
T1 construct: GST-STING (aa 139-378); made in house; host or cells: Escherichia coli BL21
T1 sequence (Q3TBT3 139-378): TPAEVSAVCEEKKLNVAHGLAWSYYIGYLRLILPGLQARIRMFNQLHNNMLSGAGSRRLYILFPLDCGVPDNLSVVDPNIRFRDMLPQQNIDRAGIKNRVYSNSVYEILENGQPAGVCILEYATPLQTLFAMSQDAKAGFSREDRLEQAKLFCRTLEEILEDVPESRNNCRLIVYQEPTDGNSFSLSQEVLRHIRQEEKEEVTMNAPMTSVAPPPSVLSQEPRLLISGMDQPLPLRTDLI

MEF^Trex1−/− = assay: Ifnβ / type I interferon mRNA levels (RT-qPCR) in treated MEF^Trex1−/−; format: cell-based, mouse; conditions: 500 μM
Experimental: (§1) RNA extraction and RT-qPCR RNA was extracted using Trizol (Invitrogen) and treated with TURBO DNase (Ambion) according to manufacturers' protocols. Reverse transcription (SuperScript IV reverse transcriptase; Invitrogen) and qPCR using specific primers were performed using SYBR GREEN (Takara) master mix and LightCycler 480 cycler (Roche). mRNA levels were normalized to Gapdh mRNA levels except in zebrafish experiments where mRNA levels were normalized to zebrafish actin (zactin).
(§2) Cells were transfected with JetPrime transfection reagent (Polyplus) at 1:2 ratio with various nucleic acids at 2 μg/ml. […] Ap4A or STAN-1 (Sigma Aldrich) were used at 500 μM in Optimem.
Next, to test whether Ap4A inhibits inflammatory responses via a STING-dependent mechanism, the inventors used three-prime repair exonuclease 1 (Trex1)-deficient mouse embryonic fibroblasts (MEF^Trex1−/−—FIG. S1D), as these are a well-characterized model of pathologic chronic inflammation with STING-dependent elevated Ifnβ levels (FIG. S1D)—(15, 16). First, the inventors treated MEF^Trex1−/− with Ap4A for 45, 90 and 180 min. […] To further assess the impact of Ap4A on STING activation and to avoid potential side effects of the addition of exogenous Ap4A to cells, the inventors next performed experiments where they modulate the expression levels of LysRS, the main producer of Ap4A (9, 10). […]

WT-MEF = assay: DMXAA-induced Ifnβ expression in WT-MEF; format: cell-based, mouse; conditions: 200 μM DMXAA, treated with Ap4A for 2 h
Experimental: Data are normalized to non-treated control. Unpaired t-test. **: p<0.005.
as §1, §2

MEF^STING−/− = assay: DMXAA-induced Ifnβ expression in STING knockout MEF; format: cell-based, mouse; conditions: 200 μM DMXAA, treated with Ap4A for 2 h
Experimental: Data are normalized to non-treated control.
as §1, §2

Row | Interaction of STING139-378 with Streptavidin-immobilized biotinylated Ap4A (GST-STING139-378; Western blotting of pull-down) | Compound | Competition for the binding of STING to biotinylated Ap4A (GST-STING139-378) | type I interferon expression (IFNα and IFNβ mRNA levels) (MEF^Trex1−/−; 3 hrs, RT-qPCR) | Ifnβ mRNA levels (MEF^Trex1−/−; Ap4A 45, 90 and 180 min, STAN-1 3 h, versus untreated) | Ability of DMXAA to induce Ifnβ expression on co-treatment (WT-MEF) | Ability of DMXAA to induce Ifnβ expression on co-treatment (MEF^STING−/−)
1 | interacts | Nc1ncnc2c1ncn2[C@@H]1O[C@H](COP(=O)(O)OP(=O)(O)OP(=O)(O)OP(=O)(O)OC[C@H]2O[C@@H](n3cnc4c(N)ncnc43)[C@H](O)[C@@H]2O)[C@@H](O)[C@H]1O [Ap4A, Diadenosine tetraphosphate] | specific | decreases type I interferon expression | decreased Ifni mRNA levels | by half | no decrease was observed
2 | – | cyclic GMP-AMP [cGAMP] | displaced | – | – | – | –
